Data reported in article PMC3933693, “Novel Inhibitors of Mitochondrial sn-Glycerol 3-phosphate Dehydrogenase” (PLoS ONE, 2014).

Legend:
mGPDH = biological target: T1, mGPDH (Rattus norvegicus, UniProt P35571); test: Superoxide/H2O2 production by mGPDH in isolated skeletal muscle mitochondria (Amplex UltraRed); format: biochemical; conditions: for mGPDH (% change from DMSO): primary screen, ∼2.5 µM, average of duplicates, 16.7 mM glycerol phosphate, no added calcium
T1 construct: Activity of mGPDH in frozen-thawed skeletal muscle mitochondria was measured; from tissue; host or cells: skeletal muscle mitochondria
T1 sequence (P35571 43-727): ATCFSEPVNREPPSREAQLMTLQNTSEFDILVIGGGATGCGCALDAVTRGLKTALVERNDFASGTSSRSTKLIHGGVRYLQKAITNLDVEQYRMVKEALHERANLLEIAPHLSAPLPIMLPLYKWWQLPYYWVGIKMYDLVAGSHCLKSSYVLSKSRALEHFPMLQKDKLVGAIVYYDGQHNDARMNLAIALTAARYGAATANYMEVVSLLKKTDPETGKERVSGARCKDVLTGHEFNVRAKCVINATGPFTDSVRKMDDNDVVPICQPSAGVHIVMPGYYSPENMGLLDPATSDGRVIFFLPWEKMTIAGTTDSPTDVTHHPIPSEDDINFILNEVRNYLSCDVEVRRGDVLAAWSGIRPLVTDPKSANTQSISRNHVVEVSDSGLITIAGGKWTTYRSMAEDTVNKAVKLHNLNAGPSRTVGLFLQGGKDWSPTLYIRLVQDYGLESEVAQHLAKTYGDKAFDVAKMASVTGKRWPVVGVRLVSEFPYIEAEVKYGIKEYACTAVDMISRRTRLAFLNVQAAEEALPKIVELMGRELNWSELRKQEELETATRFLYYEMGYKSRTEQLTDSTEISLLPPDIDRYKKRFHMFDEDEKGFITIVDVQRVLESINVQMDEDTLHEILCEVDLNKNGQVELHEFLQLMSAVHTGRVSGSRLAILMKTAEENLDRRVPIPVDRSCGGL

[1] = tested on: flavin mononucleotide site of complex I (site IF) plus matrix NAD-linked dehydrogenases (site IF/DH); test: Site-specific H2O2 production from site IF/DH in skeletal muscle mitochondria; format: biochemical, rat; conditions: primary screen, ∼2.5 µM, average of duplicates
Protocol: (§1) Superoxide was measured as H2O2 after dismutation by endogenous or exogenous superoxide dismutase. Rates of total superoxide/H2O2 production were measured fluorimetrically using Amplex UltraRed in the presence of exogenous superoxide dismutase and horseradish peroxidase in a Varian Cary Eclipse fluorimeter as previously described. Rates of production from specific sites were determined as previously described using the following eight conditions: flavin mononucleotide site of complex I (site IF) plus matrix NAD-linked dehydrogenases (collectively "site IF/DH") with 5 mM glutamate, 5 mM malate, and 4 µM rotenone; ubiquinone-binding site of complex I (site IQ) with either 0.5 or 5 mM succinate; flavin site of complex II (site IIF) with either 15 µM palmitoylcarnitine, 2.5 µM antimycin A, and 2 µM myxothiazol or 0.5 mM succinate, 4 µM rotenone, 2.5 µM antimycin A, and 2 µM myxothiazol, [31]; mGPDH with 1.7 mM glycerol phosphate, 4 µM rotenone, 2.5 µM antimycin A, 2 µM myxothiazol, 1 mM malonate, and 250 nM free calcium; outer ubiquinone-binding site of complex III (site IIIQo) with either 0.5 or 5 mM succinate, 4 µM rotenone and 2.5 µM antimycin A [32]. Candidate small-molecule inhibitors were added prior to the start of measurements and H2O2 calibration curves were performed in the presence of tested compounds.
(§2) 3,200 compounds were tested initially at 2.5 µM (0.025% DMSO final) in duplicate on different plates against a panel of five distinct assays of site-specific superoxide/H2O2 production as described in the previous section with minor changes. […] Endpoint fluorescence was measured on a Perkin Elmer Victor V3 fluorescent plate reader. The fluorescence intensity of each well was normalized as % change from the average of eight DMSO controls on the same plate. Duplicate wells of each of four modulators of mitochondrial metabolism known to inhibit specific sites of superoxide/H2O2 production were included on each plate as positive controls and the resulting fluorescence levels set as −100% change from DMSO controls. Known inhibitors included 20 mM aspartate (for site IF/DH), 1 µM FCCP (for site IQ), 10 mM malonate (for site IIF), and 2 µM myxothiazol (for site IIIQo). The background fluorescence of the FCCP wells in the site IQ assay was used to normalize mGPDH plates run in parallel. To minimize position-dependent effects across each assay plate, Tukey’s two-way median polish was applied to fluorescence values after initial normalization, [36]. Tukey’s polish is an iterative subtraction of the median row and column values from each well’s given row or column. The procedure is repeated until sequential medians for each row and column are zero and positional gradients in fluorescence are eliminated.

[2] = tested on: skeletal muscle mitochondria; test: Mitochondrial membrane potential (ΔΨm, TMRM) powered by glutamate plus malate; format: biochemical, rat; conditions: primary screen, ∼2.5 µM, average of duplicates; glutamate and malate
[3] = biological target: T2, flavin site of complex II (site IIF) (Rattus norvegicus, UniProt Q920L2); test: Site-specific H2O2 production from site IIF in skeletal muscle mitochondria; format: biochemical; conditions: primary screen, ∼2.5 µM, average of duplicates; palmitoylcarnitine
T2 construct: from tissue; host or cells: skeletal muscle mitochondria
T2 sequence (Q920L2 35-656): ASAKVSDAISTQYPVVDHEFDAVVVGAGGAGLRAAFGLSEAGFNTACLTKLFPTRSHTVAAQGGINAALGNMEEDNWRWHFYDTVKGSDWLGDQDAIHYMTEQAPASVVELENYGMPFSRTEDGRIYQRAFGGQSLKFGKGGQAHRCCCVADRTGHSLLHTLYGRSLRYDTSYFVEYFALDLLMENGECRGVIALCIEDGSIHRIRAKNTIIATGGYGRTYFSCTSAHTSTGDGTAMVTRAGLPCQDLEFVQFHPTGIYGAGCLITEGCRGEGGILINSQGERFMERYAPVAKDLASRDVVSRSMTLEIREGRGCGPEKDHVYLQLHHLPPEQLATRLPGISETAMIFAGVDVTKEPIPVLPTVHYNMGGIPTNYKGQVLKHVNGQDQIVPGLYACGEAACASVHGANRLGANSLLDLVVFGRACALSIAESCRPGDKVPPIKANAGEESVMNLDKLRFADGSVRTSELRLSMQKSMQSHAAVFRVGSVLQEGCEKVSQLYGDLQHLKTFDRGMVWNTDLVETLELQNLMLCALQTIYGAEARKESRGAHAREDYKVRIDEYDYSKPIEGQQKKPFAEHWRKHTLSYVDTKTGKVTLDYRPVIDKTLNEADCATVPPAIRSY
T2 sequence (P21913 31-282 partner): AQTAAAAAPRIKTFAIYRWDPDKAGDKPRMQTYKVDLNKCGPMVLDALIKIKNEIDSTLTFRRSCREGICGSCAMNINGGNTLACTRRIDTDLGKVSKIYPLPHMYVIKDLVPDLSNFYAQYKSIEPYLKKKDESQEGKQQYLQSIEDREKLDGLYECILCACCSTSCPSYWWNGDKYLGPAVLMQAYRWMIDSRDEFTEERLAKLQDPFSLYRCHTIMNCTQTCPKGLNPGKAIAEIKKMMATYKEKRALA
T2 sequence (Q641Z9 30-169 partner limits assumed): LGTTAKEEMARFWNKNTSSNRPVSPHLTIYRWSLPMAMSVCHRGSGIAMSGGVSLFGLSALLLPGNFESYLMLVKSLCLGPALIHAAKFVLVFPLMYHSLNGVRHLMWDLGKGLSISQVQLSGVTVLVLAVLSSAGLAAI
T2 sequence (Q6PCT8 57-159 partner): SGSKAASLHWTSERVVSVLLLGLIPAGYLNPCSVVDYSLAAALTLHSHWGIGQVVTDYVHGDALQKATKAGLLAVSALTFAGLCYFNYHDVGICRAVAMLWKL
Protocol: as §1, §2

[4] = biological target: T3, outer ubiquinone-binding site of complex III (site IIIQo) (Rattus norvegicus, UniProt P00159+P20788); test: Site-specific H2O2 production from site IIIQo in skeletal muscle mitochondria; format: biochemical; conditions: primary screen, ∼2.5 µM, average of duplicates; 5 mM succinate
T3 construct: from tissue; host or cells: skeletal muscle mitochondria
Protocol: as §1, §2

[5] = tested on: ubiquinone-binding site of complex I (site IQ); test: Site-specific H2O2 production from site IQ in skeletal muscle mitochondria; format: biochemical, rat; conditions: primary screen, ∼2.5 µM, average of duplicates; 5 mM succinate;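 note: H2O2 from superoxide detected by Amplex UltraRed fluorescence with added superoxide dismutase and horseradish peroxidase, endpoint read 30–40 min after substrate addition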

Row | effect on the rate of H2O2 production from mGPDH (mGPDH; compared with glyceraldehyde 3-phosphate, Fig. 2A) | IIF (% change from DMSO) [3] | mGPDH (% change from DMSO) (mGPDH) | IIIQo (% change from DMSO) [4] | Structure (SMILES) | IF/DH (% change from DMSO) [1] | ΔΨm (% change from DMSO) [2] | IQ (% change from DMSO) [5]
1 |  | -62.7% | -37.3% | -48.5% | Nc1cc(S(=O)(=O)c2ccc(O)c(N)c2)ccc1O [compound 5105145] | -62.0% | -1.2% | -49.7%
2 |  | -58.5% | -32.1% | -48.1% | NC(=O)Cc1c[nH]c2cccc(O)c12 [compound 5106694] | -39.7% | 0.127% | -49.2%
3 |  | -18.1% | -19.8% | 46.2% | O=[N+]([O-])c1ccc2[nH]c(-c3ccccc3)cc2c1 [compound 5107950] | -58.4% | -14.4% | -70.5%
4 |  | -5.7% | -10.0% | -6.2% | CCCCc1c(C(=O)O)cc(C)cc1C(=O)O [compound 5119061] | -13.1% | 0.737% | -6.2%
5 |  | -106.6% | -72.6% | -73.9% | Nc1ccc(-c2nc3ccc(N)cc3[nH]2)cc1 [compound 5137121] | -89.7% | 1.1% | -61.6%
6 |  | -7.8% | -10.7% | -15.7% | CC(C)CSC(CC(=O)O)C(=O)O (stereo not shown) [compound 5152843] | -19.0% | -0.119% | -6.2%
7 |  | -47.6% | -23.5% | -42.6% | O=S(=O)(Nc1ccc(O)c(Br)c1)c1ccc(Cl)cc1 [compound 5158529] | -54.3% | -0.4% | -50.5%
8 |  | -14.5% | -16.1% | 9.1% | Nc1ccccc1S(=O)(=O)Nc1cccc2cccnc12 [compound 5175136] | -42.5% | 0.113% | -18.9%
9 |  | -10.7% | -10.8% | -3.2% | Nc1cc(C(=O)O)c(N)cc1C(=O)O [compound 5180162] | -5.6% | -0.24% | -6.3%
10 |  | -39.7% | -31.6% | -32.7% | O=C(Cc1ccccc1)Nc1cc(C(=O)O)c(NC(=O)Cc2ccccc2)cc1C(=O)O [compound 5181020] | -40.9% | 0.05% | -35.6%

Continued, compound first:

Row | Structure (SMILES) | effect on the rate of H2O2 production from mGPDH (mGPDH; compared with glyceraldehyde 3-phosphate, Fig. 2A) | IIF (% change from DMSO) [3] | mGPDH (% change from DMSO) (mGPDH) | IIIQo (% change from DMSO) [4] | IF/DH (% change from DMSO) [1] | ΔΨm (% change from DMSO) [2] | IQ (% change from DMSO) [5]
11 | O=C(CO)COP(=O)(O)O [DHAP, dihydroxyacetone phosphate, reference compound] | less effective |  |  |  |  |  | 
12 | O=C1c2ccccc2C(=O)N1CCc1c[nH]c2ccc(O)cc12 [compound 5106791] |  | -42.5% | -16.2% | -35.4% | -33.6% | 0.466% | -44.7%
13 | COc1ccc(NCc2ccccc2)cc1 [compound 5107549] |  | -44.6% | -28.0% | -6.9% | -41.3% | 0.3% | -27.5%
14 | O=C1N=C(c2ccccc2)C(c2ccccc2)N1 (stereo not shown) [compound 5162292] |  | -24.8% | -13.1% | -23.8% | -7.5% | -2.7% | -4.2%
15 | COc1ccc(NCCNc2ccc(OC)cc2)cc1 [compound 5174308] |  | -50.8% | -37.5% | -30.1% | -73.0% | 0.352% | -49.0%
16 | COc1ccc(O)c(CN2CCC(N3CCCCC3)CC2)c1 [compound 5410291] |  |  | -18.0% | -19.0% | -15.5% | -0.0836% | -18.2%
17 | COc1cc(CN2CCOCC2)ccc1O [compound 5423875] |  |  | -11.3% | -15.0% | -12.7% | 0.5% | -20.0%
18 | CCN1CCN(C/C=C/c2ccc(N(C)C)cc2)CC1 [compound 5424907] |  |  | -13.4% | -5.7% | -6.5% | 0.00666% | -2.9%
